Results reported in patent publication US20220267349A1, “HETEROCYCLIC COMPOUNDS” (Hoffmann-La Roche Inc., priority 2019, published 2022).

The compounds below were run against T1, MAGL (Homo sapiens, UniProt Q99685) (assay: 2-AG assay (MAGL inhibitory activity, hydrolysis of 2-arachidonoylglycerol followed by mass spectrometry)). Conditions: 50 pM MAGL, 8 μM 2-arachidonoylglycerol, 15 min preincubation, 30 min incubation at RT.
T1 sequence (Q99685 1-303): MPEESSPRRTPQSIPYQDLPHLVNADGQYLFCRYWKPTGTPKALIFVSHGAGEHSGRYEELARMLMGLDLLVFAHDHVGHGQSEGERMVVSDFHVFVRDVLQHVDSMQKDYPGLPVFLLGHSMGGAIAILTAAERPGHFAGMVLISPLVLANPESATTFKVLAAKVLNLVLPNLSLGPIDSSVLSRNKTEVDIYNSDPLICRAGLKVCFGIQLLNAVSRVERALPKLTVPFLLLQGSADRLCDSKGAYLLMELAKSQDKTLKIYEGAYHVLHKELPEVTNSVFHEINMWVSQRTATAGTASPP
Type: biochemical
Procedure: Compounds were profiled for MAGL inhibitory activity by determining the enzymatic activity by following the hydrolysis of the natural substrate 2-arachidonoylglycerol resulting in arachidonic acid, which can be followed by mass spectrometry. This assay is hereinafter abbreviated “2-AG assay”.
The 2-AG assay was carried out in 384 well assay plates (PP, Greiner Cat #784201) in a total volume of 20 μL. Compound dilutions were made in 100% DMSO (VWR Chemicals 23500.297) in a polypropylene plate in 3-fold dilution steps to give a final concentration range in the assay from 12.5 μM to 0.8 pM. 0.25 μL compound dilutions (100% DMSO) were added to 9 μL MAGL in assay buffer (50 mM TRIS (GIBCO, 15567-027), 1 mM EDTA (Fluka, 03690-100 ml), 0.01% (v/v) Tween. After shaking, the plate was incubated for 15 min at RT. To start the reaction, 10 μL 2-arachidonoylglycerol in assay buffer was added. The final concentrations in the assay was 50 pM MAGL and 8 μM 2-arachidonoylglyerol. After shaking and 30 min incubation at RT, the reaction was quenched by the addition of 40 μL of acetonitrile containing 4 μM of d8-arachidonic acid. The amount of arachidonic acid was traced by an online SPE system (Agilent Rapidfire) coupled to a triple quadrupole mass spectrometer (Agilent 6460). A C18 SPE cartridge (G9205A) was used in an acetonitrile/water liquid setup. The mass spectrometer was operated in negative electrospray mode following the mass transitions 303.1→259.1 for arachidonic acid and 311.1→267.0 for d8-arachidonic acid. The activity of the compounds was calculated based on the ratio of intensities [arachidonic acid/d8-arachidonic acid].

IC50	SMILES
1100 nM	O=C1CC(O)[C@H]2CCN(C(=O)N3CC(OCc4ccc(C(F)(F)F)cc4F)C3)C[C@H]2N1 (mixture of isomers) [Example 18, rac-(4aS,8aS)-7-[3-[[2-fluoro-4-(trifluoromethyl)phenyl]methoxy]azetidine-1-carbonyl]-4-hydroxy-1,3,4,4a,5,6,8,8a-octahydro-1,7-naphthyridin-2-one]
159 nM	O=C1CN[C@H]2CCN(C(=O)N3CC(OCc4ccc(C(F)(F)F)cc4F)C3)C[C@H]2N1 (single isomer, unassigned) [Example 13, (4aR,8aS)- or (4aR,8aS)-6-[3-[[2-Fluoro-4-(trifluoromethyl)phenyl]methoxy]azetidine-1-carbonyl]-1,2,4,4a,5,7,8,8a-octahydropyrido[3,4-b]pyrazin-3-one]
1430 nM	O=C1CN[C@@H]2CCN(C(=O)N3CC(OCc4ccc(C(F)(F)F)cc4F)C3)C[C@@H]2N1 (single isomer, unassigned) [Example 14, (4aS,8aR)- or (4aS,8aR)-6-[3-[[2-Fluoro-4-(trifluoromethyl)phenyl]methoxy]azetidine-1-carbonyl]-1,2,4,4a,5,7,8,8a-octahydropyrido[3,4-b]pyrazin-3-one]
791 nM	O=C1CO[C@H]2CCN(C(=O)N3CC(OCc4ccc(C(F)(F)F)cc4F)C3)C[C@@]2(O)N1 [Example 16, (4aS,8aS)-6-[3-[[2-fluoro-4-(trifluoromethyl)phenyl]methoxy]azetidine-1-carbonyl]-4a-hydroxy-5,7,8,8a-tetrahydro-4H-pyrido[4,3-b][1,4]oxazin-3-one]
48.3 nM	O=C1CSC2=C(CN(C(=O)N3CC(OCc4ccc(C(F)(F)F)cc4F)C3)CC2)N1 [Example 17, 6-[3-[[2-fluoro-4-(trifluoromethyl)phenyl]methoxy]azetidine-1-carbonyl]-4,5,7,8-tetrahydropyrido[4,3-b][1,4]thiazin-3-one]

Further lines, the compound ahead of its results:

SMILES	IC50
O=C1CC[C@H]2CCN(C(=O)N3CCC(C(c4ccccc4)c4ccccc4)CC3)C[C@H]2N1 (racemic) [Example 10, rac-(4aS,8aS)-7-(4-Benzhydrylpiperidine-1-carbonyl)octahydro-1,7-naphthyridin-2(1H)-one]	0.06 nM
O=C1CC[C@H]2CCN(C(=O)N3CC(OCc4ccc(C(F)(F)F)cc4F)C3)C[C@H]2N1 (racemic) [Example 11, rac-(4aS,8aS)-7-[3-[[2-Fluoro-4-(trifluoromethyl)phenyl]methoxy]azetidine-1-carbonyl]-1,3,4,4a,5,6,8,8a-octahydro-1,7-naphthyridin-2-one]	3.1 nM
O=C1CN[C@H]2CCN(C(=O)N3CC(OCc4ccc(C(F)(F)F)cc4F)C3)C[C@H]2N1 (racemic) [Example 12, rac-(4aR,8aS)-6-[3-[[2-Fluoro-4-(trifluoromethyl)phenyl]methoxy]azetidine-1-carbonyl]-1,2,4,4a,5,7,8,8a-octahydropyrido[3,4-b]pyrazin-3-one]	72.8 nM
C[C@H]1CN(C(=O)N2CC(OCc3ccc(C(F)(F)F)cc3F)C2)C[C@H]2NC(=O)CO[C@@H]12 (relative stereo) [Example 1, rel-(4aR,8S,8aS)-6-[3-[[2-Fluoro-4-(trifluoromethyl)phenyl]methoxy]azetidine-1-carbonyl]-8-methyl-4,4a,5,7,8,8a-hexahydropyrido[4,3-b][1,4]oxazin-3-one]	4.4 nM
O=C1CO[C@H]2[C@H](CN(C(=O)N3CC(OCc4ccc(C(F)(F)F)cc4F)C3)CC2(F)F)N1 (single isomer, unassigned) [Example 3]	11.1 nM
O=C1CO[C@@H]2[C@@H](CN(C(=O)N3CC(OCc4ccc(C(F)(F)F)cc4F)C3)CC2(F)F)N1 (single isomer, unassigned) [Example 4]	1370 nM
O=C1CO[C@H]2[C@H](CN(C(=O)N3CC(c4ccc(CC(F)(F)F)cc4)C3)CC2(F)F)N1 (single isomer, unassigned) [Example 5]	2.6 nM
O=C1CO[C@@H]2[C@@H](CN(C(=O)N3CC(c4ccc(CC(F)(F)F)cc4)C3)CC2(F)F)N1 (single isomer, unassigned) [Example 6]	649 nM
CC1CN(C(=O)N2CC(OCc3ccc(C(F)(F)F)cc3F)C2)CC2NC(=O)COC12 [Example 2, rel-(4aS,8R,8aR)-6-[3-[[2-Fluoro-4-(trifluoromethyl)phenyl]methoxy]azetidine-1-carbonyl]-8-methyl-4,4a,5,7,8,8a-hexahydropyrido[4,3-b][1,4]oxazin-3-one]	118 nM
O=C1COC2=C(CN(C(=O)N3CCC(Cc4ccc(C(F)(F)F)cc4)CC3)CC2)N1 [Example 7, 6-[4-[[4-(Trifluoromethyl)phenyl]methyl]piperidine-1-carbonyl]-4,5,7,8-tetrahydropyrido[4,3-b][1,4]oxazin-3-one]	51.8 nM
O=C(N1CCC(C(c2ccccc2)c2ccccc2)CC1)N1CCc2ccc(=O)[nH]c2C1 [Example 8, 7-(4-Benzhydrylpiperidine-1-carbonyl)-1,5,6,8-tetrahydro-1,7-naphthyridin-2-one]	3 nM
O=C(N1CCc2ccc(=O)[nH]c2C1)N1CC(OCc2ccc(C(F)(F)F)cc2F)C1 [Example 9, 7-[3-[[2-Fluoro-4-(trifluoromethyl)phenyl]methoxy]azetidine-1-carbonyl]-1,5,6,8-tetrahydro-1,7-naphthyridin-2-one]	14.3 nM
